Measurements taken from the NIST ThermoML archive (doi:10.1016/j.tca.2015.03.003).

Experiment: molar heat capacity at constant pressure; xn = mol fraction of the nth substance listed
Settings: 100 kPa, Small sample (50 mg) DSC

[Cl-].[K+] [potassium chloride] + [Cl-].[Na+]
Settings | molar heat capacity at constant pressure [J/K/mol]
298.15 K, Crystal of unknown type, x1 = 0.1 | 48.78
298.15 K, Crystal of unknown type, x1 = 0.2 | 51.33
298.15 K, Crystal of unknown type, x1 = 0.3 | 49.46
298.15 K, Crystal of unknown type, x1 = 0.4 | 50.77
298.15 K, Crystal of unknown type, x1 = 0.5 | 51.13
298.15 K, Crystal of unknown type, x1 = 0.6 | 48.93
298.15 K, Crystal of unknown type, x1 = 0.7 | 50.73
298.15 K, Crystal of unknown type, x1 = 0.75 | 50.05
298.15 K, Crystal of unknown type, x1 = 0.8 | 50.46
300 K, Crystal of unknown type, x1 = 0.1 | 48.81
300 K, Crystal of unknown type, x1 = 0.2 | 51.36
300 K, Crystal of unknown type, x1 = 0.3 | 49.49
300 K, Crystal of unknown type, x1 = 0.4 | 50.8
300 K, Crystal of unknown type, x1 = 0.5 | 51.16
300 K, Crystal of unknown type, x1 = 0.6 | 48.96
300 K, Crystal of unknown type, x1 = 0.7 | 50.76
300 K, Crystal of unknown type, x1 = 0.75 | 50.07
300 K, Crystal of unknown type, x1 = 0.8 | 50.47
350 K, Crystal of unknown type, x1 = 0.1 | 49.61
350 K, Crystal of unknown type, x1 = 0.2 | 52.11
350 K, Crystal of unknown type, x1 = 0.3 | 50.24
350 K, Crystal of unknown type, x1 = 0.4 | 51.4
350 K, Crystal of unknown type, x1 = 0.5 | 51.77
350 K, Crystal of unknown type, x1 = 0.6 | 49.81
350 K, Crystal of unknown type, x1 = 0.7 | 51.51
350 K, Crystal of unknown type, x1 = 0.75 | 50.42
350 K, Crystal of unknown type, x1 = 0.8 | 50.87
400 K, Crystal of unknown type, x1 = 0.1 | 50.41
400 K, Crystal of unknown type, x1 = 0.2 | 52.86
400 K, Crystal of unknown type, x1 = 0.3 | 50.99
400 K, Crystal of unknown type, x1 = 0.4 | 52
400 K, Crystal of unknown type, x1 = 0.5 | 52.39
400 K, Crystal of unknown type, x1 = 0.6 | 50.66
400 K, Crystal of unknown type, x1 = 0.7 | 52.26
400 K, Crystal of unknown type, x1 = 0.75 | 50.77
400 K, Crystal of unknown type, x1 = 0.8 | 51.27
450 K, Crystal of unknown type, x1 = 0.1 | 51.21
450 K, Crystal of unknown type, x1 = 0.2 | 53.61
450 K, Crystal of unknown type, x1 = 0.3 | 51.74
450 K, Crystal of unknown type, x1 = 0.4 | 52.6
450 K, Crystal of unknown type, x1 = 0.5 | 53.01
450 K, Crystal of unknown type, x1 = 0.6 | 51.51
450 K, Crystal of unknown type, x1 = 0.7 | 53.01
450 K, Crystal of unknown type, x1 = 0.75 | 51.12
450 K, Crystal of unknown type, x1 = 0.8 | 51.67
470 K, Crystal of unknown type, x1 = 0.1 | 51.53
470 K, Crystal of unknown type, x1 = 0.2 | 53.91
470 K, Crystal of unknown type, x1 = 0.3 | 52.04
470 K, Crystal of unknown type, x1 = 0.4 | 52.84
470 K, Crystal of unknown type, x1 = 0.5 | 53.25
470 K, Crystal of unknown type, x1 = 0.6 | 51.85
470 K, Crystal of unknown type, x1 = 0.7 | 53.31
470 K, Crystal of unknown type, x1 = 0.75 | 51.26
470 K, Crystal of unknown type, x1 = 0.8 | 51.83
500 K, Crystal of unknown type, x1 = 0.1 | 52.01
500 K, Crystal of unknown type, x1 = 0.2 | 54.36
500 K, Crystal of unknown type, x1 = 0.3 | 52.49
500 K, Crystal of unknown type, x1 = 0.4 | 53.2
500 K, Crystal of unknown type, x1 = 0.5 | 53.63
500 K, Crystal of unknown type, x1 = 0.6 | 52.36
500 K, Crystal of unknown type, x1 = 0.7 | 53.76
500 K, Crystal of unknown type, x1 = 0.75 | 51.47
500 K, Crystal of unknown type, x1 = 0.8 | 52.07
550 K, Crystal of unknown type, x1 = 0.1 | 52.81
550 K, Crystal of unknown type, x1 = 0.2 | 55.11
550 K, Crystal of unknown type, x1 = 0.3 | 53.24
550 K, Crystal of unknown type, x1 = 0.4 | 53.8
550 K, Crystal of unknown type, x1 = 0.5 | 54.24
550 K, Crystal of unknown type, x1 = 0.6 | 53.21
550 K, Crystal of unknown type, x1 = 0.7 | 54.51
550 K, Crystal of unknown type, x1 = 0.75 | 51.82
550 K, Crystal of unknown type, x1 = 0.8 | 52.47
600 K, Crystal of unknown type, x1 = 0.1 | 53.61
600 K, Crystal of unknown type, x1 = 0.2 | 55.86
600 K, Crystal of unknown type, x1 = 0.3 | 53.99
600 K, Crystal of unknown type, x1 = 0.4 | 54.4
600 K, Crystal of unknown type, x1 = 0.5 | 54.86
600 K, Crystal of unknown type, x1 = 0.6 | 54.06
600 K, Crystal of unknown type, x1 = 0.7 | 55.26
600 K, Crystal of unknown type, x1 = 0.75 | 52.17
600 K, Crystal of unknown type, x1 = 0.8 | 52.87
635 K, Crystal of unknown type, x1 = 0.8 | 53.15
635 K, Crystal, x1 = 0.8 | 52.52
650 K, Crystal of unknown type, x1 = 0.1 | 54.41
650 K, Crystal of unknown type, x1 = 0.2 | 56.61
650 K, Crystal of unknown type, x1 = 0.3 | 54.74
650 K, Crystal of unknown type, x1 = 0.4 | 55
650 K, Crystal of unknown type, x1 = 0.5 | 55.48
650 K, Crystal of unknown type, x1 = 0.6 | 54.91
650 K, Crystal of unknown type, x1 = 0.7 | 56.01
650 K, Crystal of unknown type, x1 = 0.75 | 52.52
650 K, Crystal, x1 = 0.8 | 52.97
683 K, Crystal of unknown type, x1 = 0.75 | 52.75
683 K, Crystal, x1 = 0.75 | 55.25
687 K, Crystal of unknown type, x1 = 0.7 | 56.56
687 K, Crystal, x1 = 0.7 | 53.53
700 K, Crystal of unknown type, x1 = 0.1 | 55.21
700 K, Crystal of unknown type, x1 = 0.2 | 57.36
700 K, Crystal of unknown type, x1 = 0.3 | 55.49
700 K, Crystal of unknown type, x1 = 0.4 | 55.6
700 K, Crystal of unknown type, x1 = 0.5 | 56.1
700 K, Crystal of unknown type, x1 = 0.6 | 55.76
700 K, Crystal, x1 = 0.7 | 54.17
700 K, Crystal, x1 = 0.75 | 56.4
700 K, Crystal, x1 = 0.8 | 54.47
733 K, Crystal of unknown type, x1 = 0.6 | 56.32
733 K, Crystal, x1 = 0.6 | 56.77
739 K, Crystal of unknown type, x1 = 0.1 | 55.83
739 K, Crystal, x1 = 0.1 | 55.59
750 K, Crystal of unknown type, x1 = 0.2 | 58.11
750 K, Crystal of unknown type, x1 = 0.3 | 56.24
750 K, Crystal of unknown type, x1 = 0.4 | 56.2
750 K, Crystal of unknown type, x1 = 0.5 | 56.71
750 K, Crystal, x1 = 0.1 | 55.9
750 K, Crystal, x1 = 0.6 | 57.39
750 K, Crystal, x1 = 0.7 | 56.62
750 K, Crystal, x1 = 0.75 | 59.8
750 K, Crystal, x1 = 0.8 | 55.97
753 K, Crystal of unknown type, x1 = 0.2 | 58.15
753 K, Crystal, x1 = 0.2 | 59.47
757 K, Crystal of unknown type, x1 = 0.5 | 56.8
757 K, Crystal, x1 = 0.5 | 57.77
769 K, Crystal of unknown type, x1 = 0.4 | 56.42
769 K, Crystal, x1 = 0.4 | 56.84
771 K, Crystal of unknown type, x1 = 0.3 | 56.56
771 K, Crystal, x1 = 0.3 | 57.44
800 K, Crystal, x1 = 0.1 | 57.3
800 K, Crystal, x1 = 0.2 | 61.35
800 K, Crystal, x1 = 0.3 | 58.49
800 K, Crystal, x1 = 0.4 | 58.24
800 K, Crystal, x1 = 0.5 | 59.38
800 K, Crystal, x1 = 0.6 | 59.19
800 K, Crystal, x1 = 0.7 | 59.07
800 K, Crystal, x1 = 0.75 | 63.2
800 K, Crystal, x1 = 0.8 | 57.47
850 K, Crystal, x1 = 0.1 | 58.7
850 K, Crystal, x1 = 0.2 | 63.35
850 K, Crystal, x1 = 0.3 | 60.29
850 K, Crystal, x1 = 0.4 | 60.49
850 K, Crystal, x1 = 0.5 | 61.26
850 K, Crystal, x1 = 0.6 | 60.99
850 K, Crystal, x1 = 0.7 | 61.52
850 K, Crystal, x1 = 0.75 | 66.6
850 K, Crystal, x1 = 0.8 | 58.97
900 K, Crystal, x1 = 0.1 | 60.1
900 K, Crystal, x1 = 0.2 | 65.35
900 K, Crystal, x1 = 0.3 | 62.09
900 K, Crystal, x1 = 0.4 | 62.74
900 K, Crystal, x1 = 0.5 | 63.13
900 K, Crystal, x1 = 0.6 | 62.79
900 K, Crystal, x1 = 0.7 | 63.97
900 K, Crystal, x1 = 0.75 | 70
900 K, Crystal, x1 = 0.8 | 60.47
930 K, Crystal, x1 = 0.5 | 64.25
930 K, Liquid, x1 = 0.5 | 81.03
950 K, Liquid, x1 = 0.5 | 82.5
1000 K, Liquid, x1 = 0.5 | 86.19
1050 K, Liquid, x1 = 0.5 | 89.88
1100 K, Liquid, x1 = 0.5 | 93.56
